Paper PMC12165799, “Antimicrobial peptide developed with machine learning sequence optimization targets drug resistant Staphylococcus aureus in mice” (The Journal of Clinical Investigation, 2025)

Assays:
[1] = tested on: S. aureus MW2 membrane; test: SYTOX-based cell membrane permeability assay; design: species or system Staphylococcus aureus; details: S. aureus MW2, 1 hour; CIT-8 4–32 μg/mL
Method: 484 min at room temperature in the dark based on a previously established protocol (8). We added 90
485 µl of the dye/bacteria mixture to 10 μl of serially diluted 10× peptide concentration in black, 96-
486 well plates (Cat. no. 3904, Corning, NY, USA) and incubated the plates for 1 hour at room
487 temperature. We measured the fluorescence with excitation and emission wavelengths of 485 nm
488 and 525 nm, respectively in endpoint assay mode using a SpectraMax i3x (Molecular Devices,
489 CA, USA) fluorescence reader.
490 Propidium iodide-based membrane permeability
491 We used a propidium iodide (Thermo Fisher Scientific, MA, USA) fluorescence-based
492 bacterial permeation assay to establish membrane-oriented interactions with the designed peptides
493 based on a previously established protocol (8). We prepared exponential phase S. aureus MW2
494 bacteria and diluted to OD600 = 0.4 in PBS. We added PI dye (final concentration = 2 µM) to the
495 bacteria in 1:10 serial dilutions in black, 96-well plates (Cat. no. 3904, Corning, NY, USA) and
496 incubated the plates for 1 hour at room temperature. We then measured the fluorescence with an
497 excitation wavelength of 584 nm and an emission wavelength of 620 nm in endpoint assay mode
498 using a SpectraMax i3x (Molecular Devices, CA, USA) fluorescence reader.
501 To determine the ATP leakage potential of the peptides, we employed a luciferase-based […]

[2] = tested on: S. aureus MW2; test: Cryo-electron microscopy; format: cell-based, Staphylococcus aureus; details: 80 μg/mL, 60 minutes
Method: 506 containing 50 µl BacTiter-Glo reagent (Promega, WI, USA) and measured plate luminescence as
507 previously described (18) after 5 min of incubation at room temperature.
509 Cryo-electron microscopy (cryo-EM)
510 We statically treated 10 ml of an exponential-phase S. aureus MW2 culture (OD600 = 0.4,
For imaging, we vitrified the
512 bacteria cells using Leica EM-GP2® plunger (Leica Microsystems, Wetzlar, Germany) on R2×2
513 Quantifoil® carbon holey film (Micro Tools GmbH, Jena, Germany) grids as previously described
514 (19). Briefly, we applied a 4 µl of bacterial suspensions to the grids pre-cleaned in a Gatan Solarus
515 950 plasma cleaner (Gatan, Inc, USA), blotted with filter paper, and plunged into liquid ethane.
516 We stored the frozen grids under liquid nitrogen until used for microscopy. We then transferred
517 the grids into a JEM 2200FS electron microscope (JEOL Ltd, Akishima, Japan) operating at 200
518 keV and equipped with a field emission gun, in-column electron energy filter (omega type) and a
519 DE20 direct electron detector camera (Direct Electron Inc., CA, USA). We used a 20 eV energy
520 slit width during data acquisition. Total electron dose/image was ~15 electrons/Å2. Image pixel
521 size was 3.66 Å on the specimen scale.
523 Scanning electron microscopy (SEM)
524 We followed an established protocol with minor modification to perform SEM imaging of […]

[3] = tested on: S. aureus MW2 established biofilm; test: Fluorescence microscopy of established biofilms, live/dead staining; format: cell-based, Staphylococcus aureus; details: 32 μg/mL, SYTO9 / propidium iodide
Method: 369 aureus MW2 (adjusted to 1 × 10^6 CFU/ml) in TSB medium (supplemented with 0.2% glucose)
370 from overnight grown cultures. We added 100 µl of bacterial culture to flat-bottomed 96-well
371 polystyrene microtiter plates (Cat no. 3595, Corning, NY, USA). We then incubated the plates at
372 37°C for 24 hours in static conditions to allow biofilm formation. After incubation, we carefully
373 pipetted out the TSB medium and washed the wells with PBS (Gibco, MD, USA) to remove
374 loosely attached planktonic cells. We treated the established biofilms in each well with 10 µl of
375 serially diluted 10× peptide solution, followed by the addition of 90 μl TSB medium
376 (supplemented with 0.2% glucose). We incubated the plates for another 24 h at 37°C before
377 processing biomass and live-cell contents. We calculated the concentration of peptide that disrupts
378 50% of established biofilms (MBEC50).
380 Fluorescence microscopy of CIT-8-treated S. aureus MW2 established biofilms
381 We prepared exponential phase cultures of S. aureus MW2 and adjusted the bacterial count
382 to 1 × 10^6 CFU/ml in fresh TSB medium. To establish biofilms, we added 200 µl of the bacterial
383 culture to the chambers of Millicell EZ Slides (Millipore Sigma, MA, USA) and maintained them
384 at 37°C for 24 hours under static conditions (8). After incubation, we carefully removed the TSB […]
We calculated the percent hemolysis, […]

## H-GLFKVIKKLLKVI-NH2 [CIT-8]
[1]
  SYTOX Green fluorescence (membrane permeation): significantly increased fluorescence levels
[2]
  Cryo-EM appearance of treated cells: membrane disruption and perturbation
[3]
  Live/dead staining of established biofilm: high proportion of dead cells
